Each structure is given as a SMILES string. pIC50: −log10 of the molar value.

One experiment deals with T1, PI3K-delta (Homo sapiens, UniProt O00329).
T1 construct: purchased Upstate; Millipore 14-604
As to the kind of experiment: HTRF PI3K biochemical assay, delta isoform. To be noted: form screened (neutral or TFA salt) given, read-out: PI3Kdelta IC50. On the technique in general: Time-resolved FRET reads energy transfer from a long-lived donor to a nearby acceptor.

For another experiment, the target named is T2, PI3K-alpha (Homo sapiens, UniProt P42336).
T2 construct: purchased Upstate; Millipore 14-602
The experiment is described as follows: HTRF PI3K biochemical assay, alpha isoform. To be noted: ratio PI3K-alpha IC50 value / PI3K-delta IC50 value.

T1 sequence (O00329 whole entry): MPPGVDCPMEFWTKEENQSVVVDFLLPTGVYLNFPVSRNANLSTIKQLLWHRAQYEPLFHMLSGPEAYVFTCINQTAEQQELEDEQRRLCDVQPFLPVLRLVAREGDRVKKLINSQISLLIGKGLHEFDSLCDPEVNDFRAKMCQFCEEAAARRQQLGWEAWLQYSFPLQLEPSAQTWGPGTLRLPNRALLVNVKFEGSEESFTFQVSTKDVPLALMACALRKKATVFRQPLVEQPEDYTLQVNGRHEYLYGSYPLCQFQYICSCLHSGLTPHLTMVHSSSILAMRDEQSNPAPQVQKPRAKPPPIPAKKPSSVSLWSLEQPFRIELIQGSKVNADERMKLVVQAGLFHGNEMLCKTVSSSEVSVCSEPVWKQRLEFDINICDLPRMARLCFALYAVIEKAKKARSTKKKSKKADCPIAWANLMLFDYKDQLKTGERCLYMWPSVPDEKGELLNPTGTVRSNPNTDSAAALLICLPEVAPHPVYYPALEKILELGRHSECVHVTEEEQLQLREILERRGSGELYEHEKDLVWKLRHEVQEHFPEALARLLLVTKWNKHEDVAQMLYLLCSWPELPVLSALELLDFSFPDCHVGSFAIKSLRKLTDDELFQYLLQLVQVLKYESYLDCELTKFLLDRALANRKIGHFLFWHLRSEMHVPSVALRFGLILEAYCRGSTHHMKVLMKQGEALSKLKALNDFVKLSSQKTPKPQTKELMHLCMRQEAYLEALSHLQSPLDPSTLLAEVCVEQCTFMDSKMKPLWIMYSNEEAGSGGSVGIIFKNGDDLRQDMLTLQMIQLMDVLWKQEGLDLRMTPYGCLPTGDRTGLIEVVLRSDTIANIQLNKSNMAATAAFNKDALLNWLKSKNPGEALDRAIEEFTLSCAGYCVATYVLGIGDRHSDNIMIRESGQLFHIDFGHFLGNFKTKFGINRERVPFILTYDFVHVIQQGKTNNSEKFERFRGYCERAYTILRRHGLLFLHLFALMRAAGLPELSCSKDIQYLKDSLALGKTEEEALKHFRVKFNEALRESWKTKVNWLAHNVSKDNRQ
T1 sequence (P27986 whole entry partner): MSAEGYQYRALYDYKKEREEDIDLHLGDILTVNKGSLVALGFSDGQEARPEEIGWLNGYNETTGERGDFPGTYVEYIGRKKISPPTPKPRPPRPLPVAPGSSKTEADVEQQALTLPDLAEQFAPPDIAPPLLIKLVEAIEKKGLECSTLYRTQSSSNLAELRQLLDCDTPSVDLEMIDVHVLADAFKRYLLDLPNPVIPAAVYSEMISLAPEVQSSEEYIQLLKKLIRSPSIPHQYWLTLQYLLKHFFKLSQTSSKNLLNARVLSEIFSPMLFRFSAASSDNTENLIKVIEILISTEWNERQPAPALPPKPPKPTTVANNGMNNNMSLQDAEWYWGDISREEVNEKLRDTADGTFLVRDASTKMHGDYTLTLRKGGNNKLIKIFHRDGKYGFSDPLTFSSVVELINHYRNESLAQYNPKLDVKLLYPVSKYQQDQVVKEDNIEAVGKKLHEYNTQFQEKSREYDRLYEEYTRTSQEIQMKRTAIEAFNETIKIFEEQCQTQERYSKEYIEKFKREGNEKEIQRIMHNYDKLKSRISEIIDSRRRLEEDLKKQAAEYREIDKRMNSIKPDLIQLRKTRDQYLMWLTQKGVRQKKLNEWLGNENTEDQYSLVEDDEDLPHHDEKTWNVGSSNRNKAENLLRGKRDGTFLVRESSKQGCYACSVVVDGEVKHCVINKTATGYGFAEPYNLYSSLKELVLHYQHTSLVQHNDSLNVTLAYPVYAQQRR
T2 sequence (P42336 whole entry): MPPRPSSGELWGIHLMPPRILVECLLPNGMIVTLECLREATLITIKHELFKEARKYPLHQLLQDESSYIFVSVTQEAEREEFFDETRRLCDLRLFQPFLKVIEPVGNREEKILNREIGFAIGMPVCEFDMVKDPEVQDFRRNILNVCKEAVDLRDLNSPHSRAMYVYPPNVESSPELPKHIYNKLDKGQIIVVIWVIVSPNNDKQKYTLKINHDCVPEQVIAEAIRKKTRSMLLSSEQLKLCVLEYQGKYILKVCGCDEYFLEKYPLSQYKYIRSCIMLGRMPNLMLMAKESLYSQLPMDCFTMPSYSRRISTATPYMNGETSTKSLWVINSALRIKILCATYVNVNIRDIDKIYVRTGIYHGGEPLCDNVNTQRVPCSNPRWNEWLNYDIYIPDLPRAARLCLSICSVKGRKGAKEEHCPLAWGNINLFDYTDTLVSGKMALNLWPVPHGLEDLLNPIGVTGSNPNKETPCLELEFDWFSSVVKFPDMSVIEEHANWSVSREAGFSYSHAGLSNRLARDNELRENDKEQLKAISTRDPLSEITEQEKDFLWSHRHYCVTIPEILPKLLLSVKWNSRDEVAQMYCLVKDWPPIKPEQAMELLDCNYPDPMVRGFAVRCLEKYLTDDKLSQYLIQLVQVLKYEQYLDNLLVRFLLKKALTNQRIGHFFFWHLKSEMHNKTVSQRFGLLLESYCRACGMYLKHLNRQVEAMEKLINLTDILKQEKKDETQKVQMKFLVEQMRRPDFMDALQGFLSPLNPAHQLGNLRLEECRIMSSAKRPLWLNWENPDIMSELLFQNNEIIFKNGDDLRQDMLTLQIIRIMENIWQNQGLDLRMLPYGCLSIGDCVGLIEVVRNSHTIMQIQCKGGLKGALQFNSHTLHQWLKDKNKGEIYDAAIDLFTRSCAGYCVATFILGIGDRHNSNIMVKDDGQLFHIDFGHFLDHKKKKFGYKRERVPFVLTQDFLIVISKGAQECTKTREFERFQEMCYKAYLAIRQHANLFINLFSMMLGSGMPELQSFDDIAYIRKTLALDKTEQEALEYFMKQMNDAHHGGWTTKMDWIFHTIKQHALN
T2 sequence (P27986 whole entry partner): as the sequence (P27986 whole entry partner) above

Regarding `CCn1c(-c2cnc(C)nc2)nc2c(N[C@H]3CCN(C(=O)NC(C)(C)CC(C)(C)C)C3)ncnc21` [Compound 12-25, (3S)-3-{[9-ethyl-8-(2-methylpyrimidin-5-yl)-9H-purin-6-yl]amino}-N-(1,1,3,3-tetramethylbutyl)pyrrolidine-1-carboxamide], at PI3K-delta, the pIC50 is 8.85. Moreover, the “Selectivity versus PI3Kalpha” value on PI3K-alpha is recorded as greater than 10.

On to `CCn1c(C(C)(C)C)nc2c(N[C@H]3CCN(C(=O)C4CC4)C3)ncnc21` [Compound 7-24, 8-tert-butyl-N-[(3S)-1-(cyclopropylcarbonyl)pyrrolidin-3-yl]-9-ethyl-9H-purin-6-amine], for which the pIC50 at PI3K-delta was 6.82. In addition, the “Selectivity versus PI3Kalpha” value at PI3K-alpha was greater than 10.

Consider `CCn1c(C(=O)NCCOC)nc2c(N[C@H]3CCN(C(=O)C4CC4)C3)ncnc21` [Compound 6-2, 6-{[(3S)-1-(cyclopropylcarbonyl)pyrrolidin-3-yl]amino}-9-ethyl-N-(2-methoxyethyl)-9H-purine-8-carboxamide], for which, at PI3K-delta, the pIC50 was 7.07. On PI3K-alpha, the “Selectivity versus PI3Kalpha” value is greater than 10.

Consider `CCC(=O)N1CC[C@H](Nc2ncnc3c2nc(C(F)(F)F)n3CC)C1` [Compound 7-11, 9-ethyl-N-[(3S)-1-propanoylpyrrolidin-3-yl]-8-(trifluoromethyl)-9H-purin-6-amine], for which the pIC50 on PI3K-delta was 7.85. The “Selectivity versus PI3Kalpha” value on PI3K-alpha is greater than 10.

With `CCn1c(-c2cnc(C)nc2)nc2c(N[C@H]3CCN(C(=O)NCCOC)C3)ncnc21` [Compound 12-2, (3S)-3-{[9-ethyl-8-(2-methylpyrimidin-5-yl)-9H-purin-6-yl]amino}-N-(2-methoxyethyl)pyrrolidine-1-carboxamide], the pIC50 at PI3K-delta was 8.05. The “Selectivity versus PI3Kalpha” value at PI3K-alpha was greater than 10.

With `CCn1c(C(C)C)nc2c(N[C@H]3CCN(C(=O)C4CC4)C3)ncnc21` [Compound 7-5, N-[(3S)-1-(cyclopropylcarbonyl)pyrrolidin-3-yl]-9-ethyl-8-(1-methylethyl)-9H-purin-6-amine], the pIC50 on PI3K-delta was 6.89. Further, the “Selectivity versus PI3Kalpha” value on PI3K-alpha is greater than 10.

`CCn1c(C(N)=O)nc2c(N[C@H]3CCN(C(=O)C4CC4)C3)ncnc21` [Compound 6-11, 6-{[(3S)-1-(cyclopropylcarbonyl)pyrrolidin-3-yl]amino}-9-ethyl-9H-purine-8-carboxamide]: the pIC50 on PI3K-delta was 7.14. Further, the “Selectivity versus PI3Kalpha” value on PI3K-alpha is on record as greater than 10.

`CCn1c(C#CCOC)nc2c(N[C@H]3CCN(C(=O)C4CC4)C3)ncnc21` [Compound 16-3, N-[(3S)-1-(cyclopropylcarbonyl)pyrrolidin-3-yl]-9-ethyl-8-(3-methoxyprop-1-yn-1-yl)-9H-purin-6-amine]: the pIC50 on PI3K-delta was 7.20. Moreover, on PI3K-alpha, the “Selectivity versus PI3Kalpha” value is given as greater than 10.

On to `CCC1CN(C(=O)C2CC2)CC1Nc1ncnc2c1nc(-c1cnc(C)nc1)n2CC` (single isomer, unassigned) [Compound 3-20, N-[(3R,4S or 3S,4R)-1-(cyclopropylcarbonyl)-4-ethylpyrrolidin-3-yl]-9-ethyl-8-(2-methylpyrimidin-5-yl)-9H-purin-6-amine], for which the pIC50 at PI3K-delta is 8.46. Besides, the “Selectivity versus PI3Kalpha” value at PI3K-alpha is on record as greater than 10.

On to `CCn1c(-c2cnc(C)nc2)nc2c(N[C@H]3CCN(c4ncccn4)C3)ncnc21` [Compound 4-2, 9-ethyl-8-(2-methylpyrimidin-5-yl)-N-[(3S)-1-pyrimidin-2-ylpyrrolidin-3-yl]-9H-purin-6-amine], for which the pIC50 on PI3K-delta was 8.16. For the same compound, on PI3K-alpha, the “Selectivity versus PI3Kalpha” value was greater than 10.

Regarding `CCn1c(-c2cnc(C)nc2)nc2c(N[C@H]3CCN(C(=O)N4CCCCC4)C3)ncnc21` [Compound 12-5, 9-ethyl-8-(2-methylpyrimidin-5-yl)-N-[(3S)-1-(piperidin-1-ylcarbonyl)pyrrolidin-3-yl]-9H-purin-6-amine], at PI3K-delta, the pIC50 is 8.92. Further, at PI3K-alpha, the “Selectivity versus PI3Kalpha” value is reported as greater than 10.

Take `CCn1c(C(F)F)nc2c(N[C@H]3CCN(C(=O)[C@H]4CCCN4C)C3)ncnc21` [Compound 7-19, 8-(difluoromethyl)-9-ethyl-N-[(3S)-1-(1-methyl-D-prolyl)pyrrolidin-3-yl]-9H-purin-6-amine]: at PI3K-delta, the pIC50 is 6.42. Also, on PI3K-alpha, the “Selectivity versus PI3Kalpha” value is given as greater than 10.

Regarding `CCn1c(-c2cnc(C)nc2)nc2c(N[C@H]3CCN(C(=O)N4CC(OC)C4)C3)ncnc21` [Compound 12-10, 9-ethyl-N-{(3S)-1-[(3-methoxyazetidin-1-yl)carbonyl]pyrrolidin-3-yl}-8-(2-methylpyrimidin-5-yl)-9H-purin-6-amine], the pIC50 at PI3K-delta was greater than 9.00. The “Selectivity versus PI3Kalpha” value on PI3K-alpha is recorded as greater than 10.

Regarding `CCn1c(-c2cnc(C)nc2)nc2c(N[C@H]3C[C@H](C(=O)OC)N(C(=O)C4CC4)C3)ncnc21` [Compound 2-53, methyl (4S)-1-(cyclopropylcarbonyl)-4-{[9-ethyl-8-(2-methylpyrimidin-5-yl)-9H-purin-6-yl]amino}-D-prolinate], the pIC50 at PI3K-delta was 8.33. In addition, the “Selectivity versus PI3Kalpha” value at PI3K-alpha was greater than 10.

In the case of `CCn1c(-c2cnn(CC(F)(F)F)c2)nc2c(N[C@H]3CCN(C(=O)C4CC4)C3)ncnc21` [Compound 3-36, N-[(3S)-1-(cyclopropylcarbonyl)pyrrolidin-3-yl]-9-ethyl-8-[1-(2,2,2-trifluoroethyl)-1H-pyrazol-4-yl]-9H-purin-6-amine], the pIC50 on PI3K-delta was 8.92. Also, at PI3K-alpha, the “Selectivity versus PI3Kalpha” value is listed as greater than 10.

For `CCCn1c(-c2cnc(C)nc2)nc2c(N[C@H]3CCN(C(=O)CC)C3)ncnc21` [Compound 9-2, 8-(2-methylpyrimidin-5-yl)-N-[(3S)-1-propanoylpyrrolidin-3-yl]-9-propyl-9H-purin-6-amine], the pIC50 on PI3K-delta is 7.44. Further, on PI3K-alpha, the “Selectivity versus PI3Kalpha” value is reported as greater than 10.

Take `CCn1c(-c2cnc(C)nc2)nc2c(N[C@H]3CCN(C(=O)C4CC(O)C4)C3)ncnc21` (mixture of isomers) [Compound 2-63, (cis and trans)-3-{[(3S)-3-{[9-ethyl-8-(2-methylpyrimidin-5-yl)-9H-purin-6-yl]amino}pyrrolidin-1-yl]carbonyl}cyclobutanol]: at PI3K-delta, the pIC50 was greater than 9.00. The “Selectivity versus PI3Kalpha” value at PI3K-alpha was greater than 10.

For the compound `CCn1c(-c2cnc(C)nc2)nc2c(NC3CCCC(NC(=O)c4cocn4)C3)ncnc21` (single isomer, unassigned) [Compound 5-8, N-(1S,3S or 1R,3R)-(3-{[9-ethyl-8-(2-methylpyrimidin-5-yl)-9H-purin-6-yl]amino}cyclohexyl)-1,3-oxazole-4-carboxamide], the pIC50 on PI3K-delta is 7.92. Further, at PI3K-alpha, the “Selectivity versus PI3Kalpha” value was greater than 10.

For `CCn1c(-c2cncc(-c3ccccc3)c2)nc2c(N[C@H]3CCN(C(=O)C4CC4)C3)ncnc21` [Compound 3-37, N-[(3S)-1-(cyclopropylcarbonyl)pyrrolidin-3-yl]-9-ethyl-8-(5-phenylpyridin-3-yl)-9H-purin-6-amine], the pIC50 on PI3K-delta is 8.27. In addition, on PI3K-alpha, the “Selectivity versus PI3Kalpha” value was greater than 10.

For `CCn1c(-c2cnc(C)nc2)nc2c(N[C@H]3C[C@H](C(=O)NCCO)N(c4ccccn4)C3)ncnc21` [Compound 15-12, (4S)-4-{[9-ethyl-8-(2-methylpyrimidin-5-yl)-9H-purin-6-yl]amino}-N-(2-hydroxyethyl)-1-pyridin-2-yl-D-prolinamide], the pIC50 at PI3K-delta is 8.34. Moreover, on PI3K-alpha, the “Selectivity versus PI3Kalpha” value is on record as greater than 10.

For `CCn1c(-c2cnc(OC)c(C)c2)nc2c(N[C@H]3CCN(C(=O)c4cncn4C)C3)ncnc21` [Compound 3A-6, 9-ethyl-8-(6-methoxy-5-methylpyridin-3-yl)-N-{(3S)-1-[(1-methyl-1H-imidazol-5-yl)carbonyl]pyrrolidin-3-yl}-9H-purin-6-amine], the pIC50 at PI3K-delta was greater than 9.00. Also, the “Selectivity versus PI3Kalpha” value on PI3K-alpha is recorded as greater than 10.

On to `CCn1ncc(-c2nc3c(NC4CC(=O)N(CC(C)C)C4)ncnc3n2C)c1C` (racemic) [Compound 14-3, 4(S and R)-{[8-(1-ethyl-5-methyl-1H-pyrazol-4-yl)-9-methyl-9H-purin-6-yl}amino}-1-(2-methylpropyl)pyrrolidin-2-one], for which, at PI3K-delta, the pIC50 is 8.27. The “Selectivity versus PI3Kalpha” value on PI3K-alpha is recorded as greater than 10.

Regarding `CCn1c(-c2cnc(C)nc2)nc2c(N[C@H]3CCN(C(=O)c4nc(C)oc4C)C3)ncnc21` [Compound 2-19, (S)-(2,5-dimethyloxazol-4-yl)(3-((9-ethyl-8-(2-methylpyrimidin-5-yl)-9H-purin-6-yl)amino)pyrrolidin-1-yl)methanone], the pIC50 at PI3K-delta was 8.68. For the same compound, the “Selectivity versus PI3Kalpha” value on PI3K-alpha was greater than 10.

Regarding `CCn1c(-c2cnc(C)nc2)nc2c(N[C@H]3CCN(c4ccccn4)C3)ncnc21` [Compound 4-1, 9-ethyl-8-(2-methylpyrimidin-5-yl)-N-[(3S)-1-pyridin-2-ylpyrrolidin-3-yl]-9H-purin-6-amine], the pIC50 at PI3K-delta was greater than 9.00. The “Selectivity versus PI3Kalpha” value on PI3K-alpha is greater than 10.

`CCn1c(-c2cnc(C)nc2)nc2c(N[C@H]3CCN(C(=O)CCNC)C3)ncnc21` [Compound 2-86, 9-ethyl-N-{(3S)-1-[3-(methylamino)propanoyl]pyrroli-din-3-yl}-8-(2-methylpyrimidin-5-yl)-9H-purin-6-amine]: on PI3K-delta, the pIC50 is 7.34. Further, the “Selectivity versus PI3Kalpha” value on PI3K-alpha was greater than 10.

Take `CCC1CN(C(=O)C2CC2)CC1Nc1ncnc2c1nc(-c1cnc(C)nc1)n2CC` (racemic) [Compound 3-19, N-[(3R,4S and 3S,4R)-1-(cyclopropylcarbonyl)-4-ethylpyrrolidin-3-yl]-9-ethyl-8-(2-methylpyrimidin-5-yl)-9H-purin-6-amine]: the pIC50 at PI3K-delta was 8.42. Besides, the “Selectivity versus PI3Kalpha” value on PI3K-alpha is recorded as greater than 10.

As for `CCn1c(-c2cnc(C)nc2)nc2c(N[C@H]3CC[C@@H](C(=O)OC)C3)ncnc21` [Compound 5-3, methyl (1R,3S)-3-{[9-ethyl-8-(2-methylpyrimidin-5-yl)-9H-purin-6-yl]amino}cyclopentanecarboxyl-ate], the pIC50 at PI3K-delta is 7.49. At PI3K-alpha, the “Selectivity versus PI3Kalpha” value is greater than 10.

With `CCn1c(C#CCO)nc2c(N[C@H]3CCN(C(=O)C4CC4)C3)ncnc21` [Compound 16-4, 3-(6-{[(3S)-1-(cyclopropylcarbonyl)pyrrolidin-3-yl]amino}-9-ethyl-9H-purin-8-yl)prop-2-yn-1-ol], the pIC50 at PI3K-delta was 7.32. In addition, the “Selectivity versus PI3Kalpha” value on PI3K-alpha is recorded as greater than 10.

Source of the values: patent publication US9938281B2 (Merck Sharp & Dohme Corp., priority 2012, dated 2018).
